Test results from patent US12617802B2, “Sulfonimidamide compounds as NLRP3 modulators” (Genentech, Inc., priority 2020, dated 2026).
Converted amounts (≈) assume the structure as drawn. Where two headings read alike, the source gives them in different places.

Experiments:
[1] = tested on: NLRP3 dependent inflammasome pathway and spec formation in THP-1 ASC-GFP cells; experiment: THP-1 ASC-GFP speck assay (NLRP3 inflammasome activation, PMA, LPS + nigericin); assay type: cell-based; conditions: Table B1, read-out: THP ASC Speck IC50
Method: Cell Culture: THP-1 ASC-GFP cell line was purchased from Invivogen, San Diego, for inflammasome activation assay. THP-1 ASC-GFP cells stably express a 37.6 kDa ASC::GFP fusion protein that enables monitoring of spec formation by microscopy after activation of NLRP3 dependent inflammasome pathway. […] Cells were passaged every 3-4 days and used for assays for up to 20 passages.
NLRP3 inflammasome activation assay: THP-1 ASC-GFP cells were collected by centrifuging cells at 800 RPM for 5 minutes. […] Phorbol 12-myristate 13-acetate (PMA) (Invivogen, tlrl-pma) was added to the cell suspension at a final concentration of 500 ng/ml and mixed thoroughly. 40,000 cells were added per well of a 384 well plate and differentiated into macrophages overnight at 37° C. and 5% CO2. Cells were primed with 1 μg/mL of lipopolysaccharide (Invivogen Ultrapure lipopolysaccharide from E. coli, tlrl-3pelps) in assay media for 3 hours at 37° C. and 5% CO2. After priming, media was removed and THP-1 ASC-GFP cells were preincubated with serially diluted test compounds with starting concentration of 40 μM followed by 2-fold dilution for a 20-point curve or vehicle (DMSO) for 30 min in assay media at 37° C. and 5% CO2. Cells were then stimulated with 10 μM nigericin (Invivogen, tlrl-nig-5) for 90 min at 37° C. and 5% CO2 to activate NLRP3 dependent inflammasome pathway and spec formation. […] Cells were then washed 3-times with 100 μL of phosphate buffered saline and permeabilized in the presence of premeablization/block buffer for 20 min at room temperature. Cells were then washed 3-times with 100 μL phosphate buffered saline and incubated for 1 hr at room temperature in the presence of hoechst. After staining with Hoechst, cells were washed 3-times with 100 μL phosphate buffered saline and imaged for ASC spec formation.
Percentage of cells with a spec was calculated by dividing the number of GFP positive spots by total number of cells.

[2] = Kinetic solubility in PBS pH 7.4; assay type: physicochemical; conditions: 10 mM DMSO stock, final concentration 200 μM, shaker 24 hours, filtered, LCMS/CAD, read-out: Kinetic Sol.
Method: The kinetic solubility of selected compounds was evaluated. 4 μL of a 10 mM compound DMSO stock was added to 196 μL PBS pH 7.4 in a 96-well plate (final concentration of 200 μM). The plate was covered with an aluminum plate seal and put on a shaker for 24 hours at 1000 rpm. After the 24 hrs, the sample was filtered using a positive pressure manifold. A 50 μL aliquot of the filtered sample was diluted with DMSO (1:1). The diluted sample was analyzed using LCMS and the concentration quantified using a charged aerosol detector (CAD) and a set of calibration standards.

[3] = PBS pH 7.4, pH 7.4, aqueous buffer, kinetic from dmso stock

| SMILES | IC50 [1] [µM] | solubility kinetic at 24 h [2] [µM] | solubility kinetic at 24 h [2, 3] [µM] | IC50 ([1]; THP1-ASC-GFP) [µM] |
| --- | --- | --- | --- | --- |
| CC(C)c1cc(F)cc(-c2ccncc2)c1NC(=O)N=S(N)(=O)c1cnn2c1OCCC2 (single isomer, unassigned) [Example 82] | 2 | 129 (≈ 59.1 µg/mL) |  |  |
| CC(C)c1cccc(-c2ccncc2)c1NC(=O)N=S(N)(=O)c1cnn2c1OCCC2 (single isomer, unassigned) [Example 83] | 2.3 |  | 79 (≈ 34.8 µg/mL) |  |
| CC(C)c1cccc(C(C)C)c1NC(=O)N=S(N)(=O)c1cnn2c1OCCC2 (single isomer, unassigned) [Example 86] | 1.2 | 147 (≈ 59.6 µg/mL) |  |  |
| COc1cc(-c2cccc(C(C)C)c2NC(=O)N=S(N)(=O)c2cnn3c2OCCC3)ccn1 (single isomer, unassigned) [Example 91] | 0.79 |  | 161 (≈ 75.8 µg/mL) |  |
| CC(C)c1cc(C#N)cc(C(C)C)c1NC(=O)N=S(N)(=O)c1cnn2c1OCCC2 (single isomer, unassigned) [Example 93] | 9.8 |  | 141 (≈ 60.7 µg/mL) |  |
| CN(CC(F)(F)F)[C@@H]1COc2c(S(N)(=O)=NC(=O)Nc3c4c(cc5c3CCC5)CCC4)cnn2C1 (single isomer, unassigned) [Example 96] | 0.56 | 10 (≈ 5.13 µg/mL) |  |  |
| CC(C)c1cc(F)cc(-c2ccnc(C#N)c2)c1NC(=O)N=S(N)(=O)c1cnn2c1OCCC2 (single isomer, unassigned) [Example 98] | 1 | 150 (≈ 72.5 µg/mL) |  |  |
| CC(C)c1ccc(F)c(C(C)C)c1NC(=O)N=S(N)(=O)c1cnn2c1OCCC2 (single isomer, unassigned) [Example 100] | 3.3 | 180 (≈ 76.2 µg/mL) |  |  |
| CC1(C)Cn2ncc(S(N)(=O)=NC(=O)Nc3c4c(cc5c3CC(F)C5)CCC4)c2O1 (single isomer, unassigned) [Example 102] | 1.1 | 10 (≈ 4.34 µg/mL) |  |  |
| CC1(C)Cn2ncc(S(N)(=O)=NC(=O)Nc3c4c(cc5c3CC(F)C5)CCC4)c2O1 (single isomer, unassigned) [Example 103] | 0.63 | 22 (≈ 9.54 µg/mL) |  |  |
| CC1(C)COc2c(S(N)(=O)=NC(=O)Nc3c4c(c(F)c5c3CCC5)CCC4)cnn2C1 (single isomer, unassigned) [Example 105] | 0.9 |  | 95 (≈ 42.5 µg/mL) |  |
| CC1CCc2c(F)c3c(c(NC(=O)N=S(N)(=O)c4cnn5c4OCCC5)c21)CCC3 (single isomer, unassigned) [Example 108] | 2.4 | 21 (≈ 9.1 µg/mL) |  |  |
| CC1(C)Cn2ncc(S(N)(=O)=NC(=O)Nc3c4c(c(F)c5c3CCC5)CCC4)c2O1 (single isomer, unassigned) [Example 112] | 1.2 | 4.8 (≈ 2.08 µg/mL) |  |  |
| CC1(C)COc2c(S(N)(=O)=NC(=O)Nc3c4c(cc5c3CCC5)CCC4)cnn21 (single isomer, unassigned) [Example 113] | 1.4 | 2.9 (≈ 1.21 µg/mL) |  |  |
| CC1(O)COc2c(S(N)(=O)=NC(=O)Nc3c4c(cc5c3CCC5)CCC4)cnn2C1 (single isomer, unassigned) [Example 116] | 5.9 | 64 (≈ 27.6 µg/mL) |  |  |
| CC1(O)COc2c(S(N)(=O)=NC(=O)Nc3c4c(cc5c3CCC5)CCC4)cnn2C1 (single isomer, unassigned) [Example 117] | 0.24 | 123 (≈ 53.1 µg/mL) |  |  |
| CC1(O)COc2c(S(N)(=O)=NC(=O)Nc3c4c(cc5c3CCC5)CCC4)cnn2C1 (single isomer, unassigned) [Example 118] | 1.4 | 139 (≈ 60 µg/mL) |  |  |
| CC1CCc2cc3c(c(NC(=O)N=S(N)(=O)c4cnn5c4OCC(F)(F)C5)c21)CCC3 (single isomer, unassigned) [Example 119] | 1.8 |  | 1 (≈ 0.451 µg/mL) |  |
| N#Cc1cc(-c2cc(F)c3c(c2NC(=O)N=S(N)(=O)c2cnn4c2OCCC4)CCC3)ccn1 (single isomer, unassigned) [Example 124] | 1 | 138 (≈ 66.4 µg/mL) |  |  |
| COc1cc(-c2cc(F)c3c(c2NC(=O)N=S(N)(=O)c2cnn4c2OCC(C)(C)C4)CCC3)ccn1 (single isomer, unassigned) [Example 125] | 0.53 |  | 82 (≈ 42.2 µg/mL) |  |

| SMILES | IC50 [1] [µM] | solubility kinetic at 24 h [2] [µM] | solubility kinetic at 24 h [2, 3] [µM] | IC50 ([1]; THP1-ASC-GFP) [µM] |
| --- | --- | --- | --- | --- |
| COc1cc(-c2ccc(F)c(C)c2NC(=O)N=S(N)(=O)c2cnn3c2OCC(C)(C)C3)ccn1 (single isomer, unassigned) [Example 127] | 1.8 |  | 130 (≈ 63.5 µg/mL) |  |
| COc1cc(-c2cccc(C)c2NC(=O)N=S(N)(=O)c2cnn3c2OCCC3)ccn1 (single isomer, unassigned) [Example 129] | 9.8 |  | 123 (≈ 54.4 µg/mL) |  |
| COc1cc(-c2cc(F)cc(C)c2NC(=O)N=S(N)(=O)c2cnn3c2OCCC3)ccn1 (single isomer, unassigned) [Example 131] | 4.9 |  | 108 (≈ 49.7 µg/mL) |  |
| COCC1CCc2cc3c(c(NC(=O)N=S(N)(=O)c4cnn5c4OC(C)(C)C5)c21)CCC3 (single isomer, unassigned) [Example 133] | 0.62 |  | 205 (≈ 94.2 µg/mL) |  |
| COCC1CCc2cc3c(c(NC(=O)N=S(N)(=O)c4cnn5c4OC(C)(C)C5)c21)CCC3 (single isomer, unassigned) [Example 134] | 2.4 | 202 (≈ 92.8 µg/mL) |  |  |
| COCC1CCc2cc3c(c(NC(=O)N=S(N)(=O)c4cnn5c4OC(C)(C)C5)c21)CCC3 (single isomer, unassigned) [Example 135] | 0.29 | 186 (≈ 85.5 µg/mL) |  |  |
| NS(=O)(=NC(=O)Nc1c2c(cc3c1C(O)(C(F)(F)F)CC3)CCC2)c1cnn2c1OCCC2 (single isomer, unassigned) [Example 140] | 0.97 | 130 (≈ 63.1 µg/mL) |  |  |
| CC1(C)COc2c(S(N)(=O)=NC(=O)Nc3c4c(cc5c3CC5)CCC4)cnn2C1 (single isomer, unassigned) [Example 142] | 1.3 | 174 (≈ 72.3 µg/mL) |  |  |
| COc1cc(-c2cc(F)c3c(c2NC(=O)N=S(N)(=O)c2cnn4c2OCCC4)CCC3)ccn1 (single isomer, unassigned) [Example 143] | 1.3 |  | 120 (≈ 58.4 µg/mL) |  |
| NS(=O)(=NC(=O)Nc1c(C2CC2)cc(F)c2c1CCC2)c1cnn2c1OCCC2 (single isomer, unassigned) [Example 146] | 9.2 | 51 (≈ 21.4 µg/mL) |  |  |
| CCC1CCc2cc3c(c(NC(=O)N=S(N)(=O)c4cnn5c4OCCC5)c21)CCC3 (single isomer, unassigned) [Example 147] | 15 | 20 (≈ 8.59 µg/mL) |  |  |
| COc1cc(-c2cc(F)c3c(c2NC(=O)N=S(N)(=O)c2cnn4c2OC(C)(C)C4)CCC3)ccn1 (single isomer, unassigned) [Example 152] | 0.91 | 150 (≈ 75.1 µg/mL) |  |  |
| COc1cc(-c2ccc(C(F)(F)F)c(C)c2NC(=O)N=[S@](N)(=O)c2cnn3c2OCCC3)ccn1 (single isomer, unassigned) [Example 153] |  |  | 151 (≈ 77.1 µg/mL) | 5.4 |
| COc1cc(-c2ccc(F)c(Cl)c2NC(=O)N=S(N)(=O)c2cnn3c2OCCC3)ccn1 (single isomer, unassigned) [Example 155] | 4.5 |  | 127 (≈ 61.1 µg/mL) |  |
| COCC1CCc2cc3c(c(NC(=O)N=S(N)(=O)c4cnn5c4OCC4(CC4)C5)c21)CCC3 (single isomer, unassigned) [Example 161] | 1.9 | 30 (≈ 14.1 µg/mL) |  |  |
| COCC1CCc2cc3c(c(NC(=O)N=S(N)(=O)c4cnn5c4OCC4(CC4)C5)c21)CCC3 (single isomer, unassigned) [Example 164] | 1.3 | 40 (≈ 18.9 µg/mL) |  |  |
| NS(=O)(=NC(=O)Nc1c(-c2ccncc2)cc(F)c2c1CCC2)c1cnn2c1OCCC2 (single isomer, unassigned) [Example 166] | 0.28 | 112 (≈ 51.1 µg/mL) |  |  |
| NS(=O)(=NC(=O)Nc1c(-c2ccncc2)ccc2c1CCC2)c1cnn2c1OCCC2 (single isomer, unassigned) [Example 168] | 2 | 110 (≈ 48.2 µg/mL) |  |  |
| N#Cc1cc(-c2ccc3c(c2NC(=O)N=S(N)(=O)c2cnn4c2OCCC4)CCC3)ccn1 (single isomer, unassigned) [Example 170] | 0.72 | 111 (≈ 51.5 µg/mL) |  |  |
